Reference: patent US20260034150A1, “CANNABIDIOL FOR USE IN TREATING OR PREVENTING RECURRENT PERICARDITIS” (CARDIOL THERAPEUTICS INC., priority 2022, published 2026)
Several values for one entry are separate records, joined by “and”; a condition that tells them apart may be missing. Equal values may be shown once.

Key:
[1] = system: pro-IL-1β mRNA; test: PCR of pro-IL-1β mRNA transcription in LPS-treated macrophages; format: cell-based, mouse; details: CBD 10 μM + LPS 1 μg/mL for 6 hours; J774A.1
Protocol: (§1) Experiments were performed to evaluate cannabidiol's anti-inflammatory activity and mechanism of action. The secretion of IL-6 and the transcription of the NLRP3 inflammasome components, pro-IL-1β mRNA, and NLRP3 mRNA, are regulated by the NF-κβ pathway and activated by LPS. After 6 hours, 100 μL of a sample from each well of cells was collected and loaded as a single point in a specific ELISA assay that was used to measure the amount of IL-6 in each sample. […] A second experiment was performed to evaluate the effect of cannabidiol on the transcription of components of the NLRP3 inflammasome, namely, pro-IL-1β mRNA and NLRP3 mRNA. In this second experiment, J774A.1 mouse macrophages were cultured in individual plates (1,000,000 cells/well) and divided into the following groups to which various treatments described below were administered during a period of six hours. • 1. Group 1 (Control)—cells received nothing during the 6 hours treatment period. • 2. Group 2 (LPS)—cells received LPS (1 μg/ml) for 6 hours. • 3. […] At the end of the six-hour treatment period, samples from each group were collected and processed using Polymerase Chain Reaction (PCR) to measure the level of transcription of pro-IL-1B mRNA and NLRP3 mRNA in the samples.

[2] = system: IL-6; test: IL-6 ELISA in LPS-treated macrophages (in vitro model of inflammation); format: cell-based, mouse; details: CBD 10 μM + LPS 1 μg/mL for 6 hours; J774A.1
Protocol: Experiments were performed to evaluate cannabidiol's anti-inflammatory activity and mechanism of action. The secretion of IL-6 and the transcription of the NLRP3 inflammasome components, pro-IL-1β mRNA, and NLRP3 mRNA, are regulated by the NF-κβ pathway and activated by LPS. In a first experiment, J774A.1 mouse macrophages were cultured in 96-well plates (15,000 cells/well) and divided into the following groups to which various treatments described below were administered during a period of six hours: • 1. Group 1 (Control)—cells received nothing during the 6 hours treatment period. • 2. Group 2 (LPS)—cells received LPS (1 μg/ml) for 6 hours. • 3. […] After 6 hours, 100 μL of a sample from each well of cells was collected and loaded as a single point in a specific ELISA assay that was used to measure the amount of IL-6 in each sample. […] A second experiment was performed to evaluate the effect of cannabidiol on the transcription of components of the NLRP3 inflammasome, namely, pro-IL-1β mRNA and NLRP3 mRNA. In this second experiment, J774A.1 mouse macrophages were cultured in individual plates (1,000,000 cells/well) and divided into the following groups to which various treatments described below were administered during a period of six hours. • 1. Group 1 (Control)—cells received nothing during the 6 hours treatment period. • 2. […]

[3] = system: NLRP3 mRNA; test: PCR of NLRP3 mRNA transcription in LPS-treated macrophages; format: cell-based, mouse; details: CBD 10 μM + LPS 1 μg/mL for 6 hours; J774A.1
Protocol: as §1

[4] = system: mouse model of pericarditis; test: Mouse model of pericarditis (Zymosan A): pericardial thickness by histochemistry; format: in vivo; details: day seven, differences not statistically significant
Protocol: (§2) Experiments were conducted using a mouse model of pericarditis described in Mauro et al. (10), which mouse model is incorporated herein by reference for its disclosure of the mouse model.
(§3) Adult Institute of Cancer Research (IRC) mice (10 weeks of age) supplied by Harlan Laboratories (Harlan Sprague Dawley Inc.) were used and divided into the following treatment groups, with each group consisting of 4-5 mice: • 1. Group 1 (NaCl+Veh)—mice received normal saline (0.9% w/v NaCl) in the surgical procedure described below and were subsequently treated for seven days with a vehicle consisting of ethanol:Cremophor EL:water (1:1:18). • 2. Group 2 (NaCl+)—mice received normal saline (0.9% w/v NaCl) in the surgical procedure described below and were subsequently treated for seven days with cannabidiol at a dose of 10 mg/kg. The cannabidiol was dissolved in the same vehicle as the vehicle used for Group 1. • 3. Group 3 (Zym+Veh)—mice received Zymosan A in the surgical procedure described below and were subsequently treated for seven days with the same vehicle as the vehicle used for Group 1. • 4. […] The cannabidiol was dissolved in the same vehicle as the vehicle used for Group 1. • 5. […] The cannabidiol was dissolved in the same vehicle as the vehicle used for Group 1.
The mice of all four treatment groups were anesthetized, intubated orotracheally, and placed in the right lateral decubitus position. A left thoracotomy was then performed. […]
Following echocardiography, and on day seven, the mice were sacrificed, and their hearts were explanted and processed for pathology. […] An investigator blinded to group allocation measured the pericardial thickness with the aid of computer morphometry using Image-Pro™ Plus 6.0 software (Media Cybernetics, Silver Spring, MD).

[5] = system: NLRP3 inflammasome; test: IL-1β ELISA in the in vitro model of NLRP3 inflammasome activation (LPS + ATP); format: cell-based, mouse; details: for attenuation of the increase in IL-1β: CBD 10 μM, LPS + ATP
Protocol: An experiment was performed to determine the effect of 10 μM cannabidiol on NLRP3 inflammasome activation in an in vitro model as follows. J774A.1 mouse macrophages were cultured in 96-well plates (15,000 cells/well) and divided into the following groups to which various treatments described below were administered during a period of six hours: • 1. Group 1 (CNT)—cells received nothing during the 6-hour treatment period. • 2. Group 2 (LPS)—cells received LPS (1 μg/ml) for 6 hours. • 3. Group 3 (ATP)—cells received nothing for 5.5 hours and then ATP (5 mM) for the last 30 minutes. • 4. Group 4 (LPS+ATP)—cells received LPS (1 μg/mL) for 5.5 hours and ATP (5 mM) for the last 30 minutes. • 5. […] After 6 hours, 100 μL of a sample from each well of cells was collected and loaded as a single point in a specific ELISA assay that was used to measure the amount of IL-1β secreted by the macrophages in each sample. IL-1β is an indicator of and positively correlated with NLRP3 inflammasome activation. An experiment was performed to evaluate the effect of different doses of cannabidiol (10, 1, 0.1, and 0.01 μM) using the in vitro model of Example 1A. In this experiment, J774A.1 mouse macrophages were cultured in 96-well plates (15,000 cells/well) and divided into the following groups to which various treatments described below were administered during a period of six hours: • 1. Group 1 (Control)—cells received nothing during the 6-hour treatment period. • 2. Group 2 (LPS+ATP)—cells received LPS (1 μg/mL) for 5.5 hours and ATP (5 mM) for the last 30 minutes. • 3. […] After 6 hours, 100 μL of a sample from each well of cells was collected and loaded as a single point in a specific ELISA assay that was used to measure the amount of IL-1β in each sample.

[6] = system: mouse model of pericarditis; test: Mouse model of pericarditis (Zymosan A): pericardial space by transthoracic echocardiography; format: in vivo
Protocol: as §2, §3
The mice of all four treatment groups were anesthetized, intubated orotracheally, and placed in the right lateral decubitus position. A left thoracotomy was then performed. Under direct visualization and using a 30 Gauge needle, 1 mg of Zymosan A (referred to herein also as “zymosan”) dissolved in 50 μl of sterile normal saline (0.9% w/v NaCl) was delivered into the pericardial space of the mice of Groups 3 and 4 by carefully lifting the pericardial sac with forceps until a complete distribution of the solution into the pericardium was achieved. […] All mice received analgesia for the peri-operative period.
For all groups, treatments with either cannabidiol dissolved in vehicle, or vehicle alone, were administered intraperitoneally (IP) every day for seven days with the first treatment administered approximately 30 minutes after the surgery.
On day seven, echocardiography was performed on the mice of all groups under light anesthesia using a Prospect™ T1 ultrasound imaging system (Scintica, London, Canada). In this procedure, the left ventricle in the parasternal short-axis view at the mid-ventricular level was visualized in the bi-dimensional mode (B-mode). The image was optimized for the anterior wall, and the image was zoomed in to visualize the anterior pericardial structures. After optimization of the image, amono-dimensional mode (M-mode) was acquired for optimal spatial-temporal resolution. An investigator blinded to group allocation measured the maximal pericardial space between the 2 layers of the pericardium in both M- and B-mode. The pericardial space is a one-dimensional measure of pericardial effusion.

In the case of `C=C(C)[C@@H]1CCC(C)=C[C@H]1c1c(O)cc(CCCCC)cc1O` [CBD, 2-[(1R,6R)-3-methyl-6-prop-1-en-2-ylcyclohex-2-en-1-yl]-5-pentylbenzene-1,3-diol], the “effect on LPS-induced transcription of pro-IL-1β mRNA (FIG. 1D)” value [1] is reported as “significantly attenuated these increases”, the “effect on LPS-induced increase in IL-6 (FIG. 1C)” value [2] is reported as “attenuated this increase completely” and the “effect on LPS-induced transcription of NLRP3 mRNA (FIG. 1E)” value [3] is reported as “significantly attenuated these increases”. The “pericardial thickness versus Group 1 (NaCl+Veh), Zym+CBD 1 mg/kg” value ([4]; Zymosan A mice, CBD 1 mg/kg IP) was “did not develop a pericardial thickness different from that of the mice of Group 1”, the “pericardial thickness versus Group 1 (NaCl+Veh), Zym+CBD 10 mg/kg (FIG. 3)” value ([4]; Zymosan A mice, CBD 10 mg/kg IP) was “did not develop a pericardial thickness different from that of the mice of Group 1” and the “pericardial thickness versus Group 1 (NaCl+Veh), NaCl+CBD (FIG. 3)” value ([4]; sham mice, CBD 10 mg/kg IP) was “did not develop a pericardial thickness different from that of the mice of Group 1”. The “IL-1β concentration versus LPS+ATP group (FIG. 1A)” value ([5]; CBD 10 μM + LPS + ATP versus LPS + ATP, J774A.1) was “significantly lower concentrations of IL-1β”, the “effect of different concentrations on IL-1β (FIG. 1B)” value ([5]; CBD 10, 1, 0.1 and 0.01 μM + LPS + ATP, J774A.1) was “effective to attenuate the increase in IL-1β in a dose dependent fashion” and the “IL-1β with CBD alone versus Control group” value ([5]; CBD alone 10 μM, no LPS or ATP, J774A.1) was “no different than the Control group”. The “IL-1β Concentration, CBD, Mean” value ([5]; Table 1A.1, J774A.1 macrophages, CBD 10 μM alone for 6 hours, mean) was 6 pg/mL, the “IL-1β Concentration, CBD” value ([5]; Table 1A.1, J774A.1 macrophages, CBD 10 μM alone for 6 hours, single wells) was 5.9 pg/mL and 6.1 pg/mL and the “IL-1β Concentration, CBD + LPS + ATP, Mean” value ([5]; Table 1A.1, J774A.1, CBD 10 μM + LPS 1 μg/mL 5.5 hours, ATP 5 mM last 30 minutes, mean) was 118.725 pg/mL. The “IL-1β Concentration, CBD” value ([5]; Table 1A.2 (repeat), J774A.1, CBD 10 μM alone, single wells) was 7.86 pg/mL and 6.35 pg/mL and 8.81 pg/mL and 9.46 pg/mL and 10.46 pg/mL and 8.97 pg/mL, the “IL-1β Concentration, LPS + ATP + CBD” value ([5]; Table 1A.3 (repeat), J774A.1, CBD 10 μM + LPS + ATP, single wells) was 10.8 pg/mL and 17 pg/mL and 11.31 pg/mL and 18.96 pg/mL and the “IL-1β Concentration, LPS + ATP + CBD, Mean” value ([5]; Table 1A.4, mean of Tables 1A.2 and 1A.3, CBD 10 μM + LPS + ATP) was 19.44 pg/mL. For the same compound, the “IL-1β Concentration, CBD, Mean” value ([5]; Table 1A.4, mean of Tables 1A.2 and 1A.3, CBD 10 μM alone) was 8.898 pg/mL, the “attenuation of the increase in IL-1β” value ([5]; calculated from Table 1A.1 means) was “over 70%” and the “attenuation of the increase in IL-1β” value ([5]; calculated from Table 1A.4 means) was “about 97.65%”. For the same compound, the “effect on increase in measured pericardial space, Zym+CBD 1 mg/kg (FIG. 2)” value ([6]; Zymosan A mice, CBD 1 mg/kg IP daily for seven days) was “attenuated the increase in the measured pericardial space to the same degree as cannabidiol at a dose of 10 mg/kg”, the “Measured pericardial space, Zym + CBD, Mean” value ([6]; Zymosan A mice, CBD 10 mg/kg IP daily for seven days, day seven, mean) was 0.1177 mm and the “Measured pericardial space, Zym + CBD” value ([6]; Zymosan A mice, CBD 10 mg/kg IP daily for seven days, day seven, single mice) was 0.103 mm and 0.152 mm and 0.112 mm and 0.104 mm. The “pericardial space versus Group 1 (Saline+Veh), Zym+CBD” value ([6]; Zymosan A mice, CBD 10 mg/kg IP, differences not statistically significant) was “did not develop a pericardial space greater than that of the mice of Group 1”, the “attenuation of the increase in the measured pericardial space” value ([6]; calculated from Table 2 means, Zymosan A mice, CBD 10 mg/kg IP) was “at least 85%” and the “Measured pericardial space, Saline + CBD” value ([6]; sham (saline) mice, CBD 10 mg/kg IP daily for seven days, day seven, single mice) was 0.098 mm and 0.097 mm and 0.105 mm. For the same compound, the “pericardial space versus Group 1 (Saline+Veh), Saline+CBD” value ([6]; sham mice, CBD 10 mg/kg IP, differences not statistically significant) was “did not develop a pericardial space greater than that of the mice of Group 1”.
